Like-named read-outs stand apart in the source and are kept apart here.
Columns and labels:
[1] = tested on: calcium level in serum; conditions: patients suffering from hypocalcemia; cited from earlier work
[2] = 30-day repeated oral administration toxicity (Example 26); type: in vivo, ICR mouse; conditions: 1 mg/kg/day, 30 days
Protocol: 24R,25-(OH)2 -D3 was dissolved in Panacete® 810 containing 1% by weight of ethanol, and the solution was forcibly p.o. administered once a day for 30 continuous days to each male or female ICR mouse of the groups shown in Table 20 at each one of the daily dose rates also shown in Table 20.
As the control, Panacete 810 was solely and forcibly p.o. administered to the mice of the same strain once a day for 30 continuous days.

[3] = tested on: tumour; assay: Anti-tumour experiments using mouse and rat as the host; type: in vivo
[4] = tested on: calcium level in serum; conditions: healthy dog, continuous injection 20 min into thyroid artery; cited from earlier work
[5] = tested on: calcium level in serum; conditions: normal person, 250 micrograms oral; cited from earlier work
[6] = tested on: magnesium level in serum; conditions: thyroidectomized and parathyroidectomized rats, administered once; cited from earlier work
[7] = tested on: magnesium level in serum; conditions: bilateral nephrectomy rats; cited from earlier work
[8] = tested on: blood sugar level; assay: Blood sugar in patients (Example 23); type: in vivo, human; conditions: patients suffering from glycosuria
Protocol: Three patients shown in Table 17 were treated by oral administration of a daily dose of 4 to 6 micrograms of 24R,25-(OH)2 -D3 in a form of the soft capsule composition obtained in Example 6 for 3 continuous weeks. After the completion of administration, the patient was fasted for a night and their blood specimen was collected at 11:00 a.m. in the next morning.
Effectiveness of reducing blood sugar level (ERBS) is calculated from the […]

[9] = tested on: calcium level in serum; conditions: dog with hyper-parathyreosis, thyroid arterial route; cited from earlier work

SMILES: C=C1CC[C@H](O)C/C1=C/C=C1\CCC[C@]2(C)[C@@H]([C@H](C)CCC(O)C(C)(C)O)CC[C@@H]12 (stereo partly shown) [24,25-(OH)2 -D3, 24,25-dihydroxycholecalciferol]
- Calcium level in serum [1]: non of them reported the case where the calcium level in the patient's serum showed a significant change
- biochemical examination of the blood and autopsy [2]: any significant abnormal findings were not observed
- anti-tumour effect in vivo [3]: anti-tumour effect of the compound was confirmed
- Calcium level in serum [4]: showed a temporary reduction
- Calcium level in serum [5]: did not cause the significant change of calcium level
- magnesium clearance [6]: did not affect the magnesium level in serum thereof and the magnesium clearance thereof
- magnesium level in serum [6]: did not affect the magnesium level in serum
- magnesium level in serum [7]: did not affect significantly the magnesium level in serum
- blood sugar level [8]: significant reduction of the blood sugar level was observed
- Calcium level in serum [9]: did not change the dog's calcium level in serum
